The text below walks through data of PubChem BioAssay (NCI).

Molecules are shown by their SMILES.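 Grown in 96-well plates, cells were treated for 48 hours with each compound at five concentrations. Insufficient inhibition: endpoint recorded as highest concentration tested. The concentration for full growth arrest is given as TGI.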

Some test systems named below: DMS 273 small cell lung; DLD-1 colon; DMS 114 small cell lung; KM20L2 colon; HOP-18 NSCLC; SNB-78 CNS; MCF7 breast; DU-145 prostate; PC-3 prostate; HS 578T breast; BT-549 breast; MDA-MB-435.
What all share (assay): NCI-60 cell line screen, 48 h

`CC(C)=CC(=O)C1c2cccc(O)c2C(=O)c2c(O)cc(C)cc21` (stereo not given): the TGI in the test on DMS 273 small cell lung was determined as 9.46 µM; in the test with DLD-1 colon, 7.89 µM; in the test with DMS 114 small cell lung it was 3.57 µM; in the test with KM20L2 colon, 17.6 µM; with HOP-18 NSCLC, 4.03 µM; in the test with SNB-78 CNS, 7.84 µM.

Turning to `CCOc1ccc(NC(=O)C(=O)CC(=O)c2c[n+](=O)c3cc(C)c(C)cc3n2[O-])cc1`, the TGI in the test with DMS 273 small cell lung, in the test with DMS 114 small cell lung, with KM20L2 colon, in the test on HOP-18 NSCLC and in the test with SNB-78 CNS was > 100 µM in each case.

For `C=C1C(=O)C23CC1CCC2C12CO[C@@H]4OCC(C)(CC[C@@H]1OC3=O)C42` (stereo not given in full), the TGI in the test with DMS 273 small cell lung turned out to be 19.6 µM; in the test on DMS 114 small cell lung it was 4.16 µM; with KM20L2 colon it was 17.5 µM; in the test with HOP-18 NSCLC, 15.5 µM; with SNB-78 CNS, 9.57 µM.

As to `O=CN/C=C/c1cc(O)ccc1O`, the TGI is > 100 µM in the test on DMS 273 small cell lung; 34.4 µM in the test on DLD-1 colon; 30.2 µM with MCF7 breast; > 100 µM in the test on DU-145 prostate; > 100 µM with PC-3 prostate; 31.8 µM in the test on DMS 114 small cell lung. Further, the figures for the TGI in the test on KM20L2 colon, in the test with HOP-18 NSCLC and with SNB-78 CNS were > 80.3 µM, > 56.8 µM and 44.3 µM, respectively.

`COC1(OC)CCC2C1C1CCC(OC)(OC)C21` (stereo not given): the TGI in the test with DMS 273 small cell lung, with DLD-1 colon, in the test on DMS 114 small cell lung, in the test with KM20L2 colon, in the test on HOP-18 NSCLC and with SNB-78 CNS was > 50 µM each time.

As for `Cc1cc(C)nc(NS(=O)(=O)c2ccc(NC(=O)c3ccc(Cl)c4c(Nc5ccc(S(=O)(=O)Nc6nc(C)cc(C)n6)cc5)c5ccccc5nc34)cc2)n1`, the TGI in the test on DMS 273 small cell lung is > 100 µM; with DLD-1 colon it was 84.2 µM; in the test on DMS 114 small cell lung, 8.54 µM; in the test on KM20L2 colon it was 69.9 µM; with HOP-18 NSCLC it was 6.53 µM; with SNB-78 CNS, > 100 µM.

For `N#CC1C(C#N)C2(c3ccccc3)C(c3ccccc3)=NN(c3ccccc3)CC12` (stereo not given), the TGI in the test with DMS 273 small cell lung, in the test with DLD-1 colon, in the test with DMS 114 small cell lung, in the test with KM20L2 colon, with HOP-18 NSCLC and in the test on SNB-78 CNS was > 100 µM in each case.

Consider `COc1cc2c(cc1OC)-c1c3cc(O)ccc3nn[n+]1CC2`, for which the TGI with DMS 273 small cell lung, in the test with DLD-1 colon, in the test with DMS 114 small cell lung, with KM20L2 colon, with HOP-18 NSCLC and with SNB-78 CNS was > 100 µM each time.

In the case of `Cn1cnc([N+](=O)[O-])c1Sc1nnc(-c2cccnc2)n1C`, the TGI was > 100 µM in the test on DMS 273 small cell lung; 40.5 µM with DLD-1 colon; 46.8 µM in the test on MCF7 breast; > 80.7 µM in the test on DU-145 prostate; > 89.4 µM in the test with HS 578T breast; > 57.9 µM in the test with PC-3 prostate. Also, the TGI with DMS 114 small cell lung is > 49.2 µM; with BT-549 breast, 36.5 µM; with KM20L2 colon it was > 100 µM; with HOP-18 NSCLC it was 35.6 µM; with SNB-78 CNS, 63.2 µM; in the test on MDA-MB-435, 30.2 µM.

`O=C1/C(=C/c2ccccc2)CN(C(=O)C(Cl)(Cl)Cl)C/C1=C\c1ccccc1`: the TGI came out at 2.38 µM in the test on DMS 273 small cell lung; 4.28 µM in the test on DLD-1 colon; 3.19 µM in the test on DMS 114 small cell lung; 4.67 µM with KM20L2 colon; 9.6 µM in the test with HOP-18 NSCLC; 7.54 µM with SNB-78 CNS.

In the case of `CN(C)CC[N+]1=Nc2cccc3cccc(c23)N1`, the TGI with DMS 273 small cell lung is 35.6 µM; with DLD-1 colon, > 59.8 µM; with DMS 114 small cell lung, > 100 µM; in the test on KM20L2 colon, > 100 µM; in the test on HOP-18 NSCLC, > 100 µM; in the test on SNB-78 CNS, > 100 µM.

`CN1C(=O)C(C)(C)C2(SC(C)(C)C2(C)C)N(C)C1=S` (stereo not given): the TGI with DMS 273 small cell lung, with DLD-1 colon, with DMS 114 small cell lung, in the test on HOP-18 NSCLC and in the test with SNB-78 CNS was > 100 µM in each case.

With `CC(C)C/C(CC(=O)CCC(=O)Nc1ccccc1[N+](=O)[O-])=N\NC(=O)c1cc2ccccc2cc1O`, the TGI in the test with DLD-1 colon was > 100 µM; in the test on DMS 114 small cell lung it was 86.8 µM; in the test with KM20L2 colon, > 100 µM; in the test on HOP-18 NSCLC, > 100 µM.

With `O=C(O)CCc1coc2ccc(O)cc12`, the TGI in the test with DMS 273 small cell lung, in the test on DLD-1 colon, in the test with DMS 114 small cell lung, with KM20L2 colon, with HOP-18 NSCLC and in the test on SNB-78 CNS was > 100 µM in each case.

For `O=C(N/C(=C\c1ccc(/C=C(\NC(=O)c2ccccc2)c2nc3cc([N+](=O)[O-])ccc3[nH]2)cc1)c1nc2cc([N+](=O)[O-])ccc2[nH]1)c1ccccc1`, the TGI in the test with DMS 273 small cell lung, in the test on DLD-1 colon, in the test with DMS 114 small cell lung, in the test on KM20L2 colon, in the test on HOP-18 NSCLC and in the test with SNB-78 CNS was > 100 µM in each case.

As for `CC1=C(C(=O)NCc2ccccc2)C(/C=C/c2ccccc2)C(C(=O)NCc2ccccc2)=C(C)N1`, the TGI in the test on DMS 273 small cell lung, in the test on DLD-1 colon, in the test on DMS 114 small cell lung, with KM20L2 colon, in the test on HOP-18 NSCLC and in the test with SNB-78 CNS was > 100 µM each time.
